{"source": "paper PMC9352912", "about": "“Oncogenic KRAS G12C: Kinetic and redox characterization of covalent inhibition” (The Journal of Biological Chemistry, 2022)", "key": {"[1]": {"molecular_target": "T1, KRAS^CCLW (KRAS^G12C/C51S/C80L/C118S/Y137W) (Homo sapiens, UniProt P01116, C118S/C51S/C80L/G12C/Y137W)", "T1 construct": "Truncated human KRAS4B (residues 2–169) was expressed from a modified pET21 bacterial expression vector; 6xHis (followed by TEV site) (N, cleaved yes); made in house; host or cells: Rosetta2 (DE3) cells (E. coli)", "assay": "Stopped-flow fluorescence kinetics of KRAS^CCLW with covalent inhibitor (binding and ligation)", "settings": "for k +1: global fit KinTek Explorer, kon of reversible binding; for k +2 / k −1: global fit; for k +2: kinact; for k −1: koff of reversible binding", "procedure": "Note that in this kinetic model, k+1 represents kon and k-1 represents koff for reversible inhibitor binding, and Kd can be calculated from the ratio of the two. In addition, k+2 represents kinact and k-2, not shown in the model, is 0 due to the irreversible formation of the covalent bond between KRAS and inhibitor.\nThe KRAS was first reduced by adding 10 mM DTT and incubating at 20 °C for 30 min and then passed over a PD-10 desalting column to remove excess DTT, then the protein was exchanged into a buffer containing 10 mM Hepes at pH 7.5, with 50 mM NaCl, 5 mM MgCl2, and 10 μM GDP. Samples were loaded into the syringes of an Applied Photophysics SX.18 MV stopped-flow spectrophotometer and allowed to equilibrate to 5 or 20 °C. The fluorescence changes were recorded after sample mixing via monitoring at 90° relative to incident light with excitation at 280 nm and emission >320 nm. Separate time courses were used to investigate the fast initial changes (0.2–1 s) and the much slower phase (100–1000 s) of decreasing fluorescence signal. Data were analyzed using Applied Photophysics software and fit to single (or double) exponentials as appropriate. To obtain rate constants and inhibition parameters, data from all (four or more) inhibitor concentrations at a given pH and 5 °C were fit globally using KinTek Global Kinetic Explorer (version 10.2.0) ([20], [38]) using Equation 2 (both steps are taken to be reversible, but the second step returns a reverse rate that is essentially 0). […] Briefly, data were fit to Equation 3 using Kaleidagraph software, version 4.5.4:(3) y=(kinact/Ki)×/(1+((kinact/Ki)×/kinact))"}, "[2]": {"assay": "Inhibitor solubility in MHT reaction buffer", "settings": "MHT buffer with 3% dimethyl sulfoxide"}, "KRAS^CCLW": {"tested_on": "KRAS^CCLW", "assay": "ESI-TOF mass spectrometry of adduct formation with reduced or H2O2-oxidized KRAS^CCLW", "settings": "for reaction with sulfenic acid form of protein: H2O2-oxidized KRAS^CCLW (-SOH)", "procedure": "The samples were buffer exchanged using a P6 Bio-Gel column that was pre-equilibrated with 50 mM ammonium bicarbonate (ABC). […] Oxidation was achieved by addition of 1 to 10 molar equivalents of H2O2 for 10 min at 25 °C with 250 RPM shaking using a thermomixer. The reaction was quenched by passing through a P6 Bio-Gel spin column pre-equilibrated with ABC.\nSamples were introduced via direct infusion at a flow rate of 20 μl/min using a syringe pump. Mass spectra were acquired over the range of 600 − 3200 m/z and then averaged and deconvoluted, and ion abundance was quantified using Agilent MassHunter Workstation software vB.02.00. Relative ion abundances were used to determine the reaction progress."}, "Cys12 [3]": {"molecular_target": "T2, Cys12 (UniProt position 12, VVVGACGVGKS)", "assay": "kinetics", "settings": "50 mM NaCl, 5 mM MgCl2, MHT buffer: 50 mM MES, 50 mM Hepes, 50 mM Tris, Pre-reduced protein reacting with ARS-853 (inhibitor-bound encounter complex), GDP form"}, "Cys12 [4]": {"molecular_target": "T2, Cys12", "assay": "NMR", "settings": "25 °C, 40 mM NaCl, 5 mM MgCl2, 20 mM Tris-Maleate, 5 mM MgCl2, 20 μM GDP, GDP-bound, inhibitor-free, folded"}, "Cys12 [5]": {"molecular_target": "T2, Cys12", "assay": "chemical modification"}}, "data": [{"compound": "C=CC(=O)N1CC(N2CCN(C(=O)CNc3cc(C4(C)CC4)c(Cl)cc3O)CC2)C1", "note": "[ARS-853]", "values": [{"measurement": "k +1", "setting": "[1]; pH 7.0, 5 °C", "result": "1.35 ± 0.01"}, {"measurement": "k +2", "setting": "[1]; pH 7.0, 5 °C", "result": "0.0073 ± 0.0004"}, {"measurement": "k −1", "setting": "[1]; pH 7.0, 5 °C", "result": "49.7 ± 0.3"}, {"measurement": "k +1", "setting": "[1]; pH 7.5, 5 °C", "result": "1.69 ± 0.01"}, {"measurement": "k +2", "setting": "[1]; pH 7.5, 5 °C", "result": "0.0169 ± 0.0005"}, {"measurement": "k −1", "setting": "[1]; pH 7.5, 5 °C", "result": "51.1 ± 0.3"}, {"measurement": "k +1", "setting": "[1]; pH 8.0, 5 °C", "result": "1.50 ± 0.01"}, {"measurement": "k +2", "setting": "[1]; pH 8.0, 5 °C", "result": "0.038 ± 0.006"}, {"measurement": "k −1", "setting": "[1]; pH 8.0, 5 °C", "result": "51.2 ± 0.3"}, {"measurement": "k +1", "setting": "[1]; pH 8.5, 5 °C", "result": "1.45 ± 0.01"}, {"measurement": "k +2", "setting": "[1]; pH 8.5, 5 °C", "result": "0.099 ± 0.001"}, {"measurement": "k −1", "setting": "[1]; pH 8.5, 5 °C", "result": "61.7 ± 0.4"}, {"measurement": "k +1", "setting": "[1]; pH 9.0, 5 °C", "result": "0.976 ± 0.009"}, {"measurement": "k +2", "setting": "[1]; pH 9.0, 5 °C", "result": "0.280 ± 0.003"}, {"measurement": "k −1", "setting": "[1]; pH 9.0, 5 °C", "result": "75.1 ± 0.4"}, {"measurement": "inhibitor solubility (no problem encountered up to)", "setting": "[2]", "result": "≥ 300", "unit": "µM"}, {"measurement": "reaction with sulfinic acid form of protein", "setting": "KRAS^CCLW; H2O2-oxidized KRAS^CCLW (-SO2H)", "result": "did not react"}, {"measurement": "reaction with sulfenic acid form of protein", "setting": "KRAS^CCLW", "result": "did not react"}, {"measurement": "time to adduct formation with reduced protein", "setting": "KRAS^CCLW; reduced KRAS^CCLW (-SH), […] excess of inhibitor, 25 °C", "result": "≤ 5", "unit": "min"}]}, {"compound": "CC1(C)CC(=O)CC(=O)C1", "note": "[dimedone]", "values": [{"measurement": "reaction with sulfenic acid form of protein", "setting": "KRAS^CCLW", "result": "reacted rapidly"}]}, {"compound": "GTPase KRas (KRAS4B) G12C Cys-light Y137W (KRAS-CCLW) (Homo sapiens; G12C;C51S;C80L;C118S;Y137W)", "values": [{"measurement": "pKa", "setting": "Cys12 [3]; 5 °C", "result": "8.15 ± 0.13"}, {"measurement": "pKa", "setting": "Cys12 [3]; 20 °C", "result": "8.21 ± 0.09"}]}, {"compound": "GTPase KRas (KRAS4B) G12C/C118S (Homo sapiens; G12C;C118S)", "values": [{"measurement": "pKa", "setting": "Cys12 [4]", "result": "7.6 ± 0.4"}, {"measurement": "pKa", "setting": "Cys12 [5]; 50 mM NaCl, 5 mM MgCl2, 15 mM Hepes, 15 mM MES, 5 mM MgCl2, 50 mM NaCl, 200 μM DTPA, N2-sparged, DTT removed, Reduced thiol, inhibitor-free. Nucleotide state not stated for this assay.", "result": "7.6 ± 0.1"}]}, {"compound": "GTPase KRas G12C (as studied by Hansen et al. 2018) (Homo sapiens; G12C)", "values": [{"measurement": "pKa", "setting": "Cys12 [5]; KRAS G12C reacting with N-benzylacrylamide, cited from earlier work", "result": 9.2}, {"measurement": "pKa", "setting": "Cys12 [5]; inhibitor-free KRAS G12C, cited from earlier work", "result": "9.0 ± 0.2"}]}]}
